Results: paper PMC6199744, “Development of Chemical Proteomics for the Folateome and Analysis of the Kinetoplastid Folateome” (ACS Infectious Diseases, 2018)
Read-outs that look alike come from different tables or passages of the source.

Key:
Type in all cases: binding
[1] = biological target: T1, HeLa cell extract proteins (Homo sapiens, UniProt P04843)
T1 construct: endogenous in cells; host or cells: HeLa cell extract
T1 sequence (P04843 24-607): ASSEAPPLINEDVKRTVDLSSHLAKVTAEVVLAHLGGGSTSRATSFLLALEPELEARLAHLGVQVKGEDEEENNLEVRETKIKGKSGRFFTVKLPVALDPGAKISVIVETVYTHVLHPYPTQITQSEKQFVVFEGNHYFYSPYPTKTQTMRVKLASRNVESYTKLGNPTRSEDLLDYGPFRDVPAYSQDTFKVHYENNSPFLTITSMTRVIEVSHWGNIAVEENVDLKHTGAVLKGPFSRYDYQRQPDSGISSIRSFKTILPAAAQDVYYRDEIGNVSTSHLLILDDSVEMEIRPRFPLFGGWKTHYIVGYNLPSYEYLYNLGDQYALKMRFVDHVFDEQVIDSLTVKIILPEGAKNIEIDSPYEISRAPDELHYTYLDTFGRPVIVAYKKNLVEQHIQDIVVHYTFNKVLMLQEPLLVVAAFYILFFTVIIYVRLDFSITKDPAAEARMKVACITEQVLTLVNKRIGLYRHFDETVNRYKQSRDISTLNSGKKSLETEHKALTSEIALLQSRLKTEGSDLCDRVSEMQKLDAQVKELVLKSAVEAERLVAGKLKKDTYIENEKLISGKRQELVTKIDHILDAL

[2] = biological target: T2, HeLa cell extract proteins (Homo sapiens, UniProt P05166)
T2 construct: endogenous in cells; host or cells: HeLa cell extract
T2 sequence (P05166 29-539): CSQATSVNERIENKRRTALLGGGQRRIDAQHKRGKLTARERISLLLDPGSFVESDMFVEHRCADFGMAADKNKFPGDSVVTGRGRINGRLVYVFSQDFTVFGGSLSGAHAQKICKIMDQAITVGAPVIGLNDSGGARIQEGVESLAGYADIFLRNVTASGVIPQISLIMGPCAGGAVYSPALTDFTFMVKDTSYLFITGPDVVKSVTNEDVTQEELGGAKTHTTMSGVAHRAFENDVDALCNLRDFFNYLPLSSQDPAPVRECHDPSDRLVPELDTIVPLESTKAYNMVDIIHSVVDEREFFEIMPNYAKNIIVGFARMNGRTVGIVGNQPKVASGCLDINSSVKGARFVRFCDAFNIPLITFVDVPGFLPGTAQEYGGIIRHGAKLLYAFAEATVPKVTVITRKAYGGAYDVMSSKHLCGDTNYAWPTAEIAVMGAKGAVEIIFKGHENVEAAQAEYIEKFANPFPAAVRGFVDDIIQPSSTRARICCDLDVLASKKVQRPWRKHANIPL

[3] = biological target: T3, HeLa cell extract proteins (Homo sapiens, UniProt P33993)
T3 construct: endogenous in cells; host or cells: HeLa cell extract

[4] = biological target: T4, HeLa cell extract proteins (Homo sapiens, UniProt P35579)
T4 construct: endogenous in cells; host or cells: HeLa cell extract

[5] = biological target: T5, HeLa cell extract proteins (Homo sapiens, UniProt P60842)
T5 construct: endogenous in cells; host or cells: HeLa cell extract

[6] = biological target: T6, HeLa cell extract proteins (Homo sapiens, UniProt Q9H0U4)
T6 construct: endogenous in cells; host or cells: HeLa cell extract

[7] = biological target: T7, HeLa cell extract proteins (Homo sapiens, UniProt Q9NVI7)
T7 construct: endogenous in cells; host or cells: HeLa cell extract
T7 sequence (Q9NVI7 1-586): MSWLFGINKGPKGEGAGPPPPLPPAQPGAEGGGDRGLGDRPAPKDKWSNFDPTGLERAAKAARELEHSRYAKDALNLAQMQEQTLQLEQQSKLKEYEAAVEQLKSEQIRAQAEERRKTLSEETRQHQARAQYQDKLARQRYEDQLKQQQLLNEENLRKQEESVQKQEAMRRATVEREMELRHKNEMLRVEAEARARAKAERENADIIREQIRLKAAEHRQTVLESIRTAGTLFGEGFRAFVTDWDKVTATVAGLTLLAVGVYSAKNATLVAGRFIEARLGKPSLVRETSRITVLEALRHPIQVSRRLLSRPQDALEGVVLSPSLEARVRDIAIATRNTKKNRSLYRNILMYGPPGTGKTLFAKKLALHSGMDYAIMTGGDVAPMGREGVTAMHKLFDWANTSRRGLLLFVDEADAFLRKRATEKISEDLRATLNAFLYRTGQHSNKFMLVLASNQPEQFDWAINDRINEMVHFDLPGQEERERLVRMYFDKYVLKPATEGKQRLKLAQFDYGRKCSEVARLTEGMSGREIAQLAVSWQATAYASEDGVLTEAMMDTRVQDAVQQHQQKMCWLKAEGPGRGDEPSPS

[8] = biological target: T8, HeLa cell extract proteins (Homo sapiens, UniProt Q9UHX1)
T8 construct: endogenous in cells; host or cells: HeLa cell extract
T8 sequence (Q9UHX1 1-559): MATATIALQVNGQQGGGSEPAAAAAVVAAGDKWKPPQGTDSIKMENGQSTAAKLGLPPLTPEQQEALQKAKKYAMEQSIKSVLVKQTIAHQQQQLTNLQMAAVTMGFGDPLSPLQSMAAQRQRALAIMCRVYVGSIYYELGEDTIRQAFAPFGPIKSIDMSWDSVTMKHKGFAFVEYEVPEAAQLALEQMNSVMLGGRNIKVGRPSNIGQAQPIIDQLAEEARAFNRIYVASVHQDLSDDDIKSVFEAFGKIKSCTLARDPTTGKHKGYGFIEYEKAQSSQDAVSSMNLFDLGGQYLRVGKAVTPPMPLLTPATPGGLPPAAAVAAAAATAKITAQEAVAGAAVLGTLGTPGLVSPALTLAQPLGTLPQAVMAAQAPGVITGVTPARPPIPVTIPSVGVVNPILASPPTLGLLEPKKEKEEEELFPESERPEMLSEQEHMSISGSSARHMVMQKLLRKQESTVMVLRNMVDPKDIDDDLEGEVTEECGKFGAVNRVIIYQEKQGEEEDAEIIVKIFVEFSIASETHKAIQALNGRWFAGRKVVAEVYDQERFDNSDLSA

T4 sequence (P35579 whole entry): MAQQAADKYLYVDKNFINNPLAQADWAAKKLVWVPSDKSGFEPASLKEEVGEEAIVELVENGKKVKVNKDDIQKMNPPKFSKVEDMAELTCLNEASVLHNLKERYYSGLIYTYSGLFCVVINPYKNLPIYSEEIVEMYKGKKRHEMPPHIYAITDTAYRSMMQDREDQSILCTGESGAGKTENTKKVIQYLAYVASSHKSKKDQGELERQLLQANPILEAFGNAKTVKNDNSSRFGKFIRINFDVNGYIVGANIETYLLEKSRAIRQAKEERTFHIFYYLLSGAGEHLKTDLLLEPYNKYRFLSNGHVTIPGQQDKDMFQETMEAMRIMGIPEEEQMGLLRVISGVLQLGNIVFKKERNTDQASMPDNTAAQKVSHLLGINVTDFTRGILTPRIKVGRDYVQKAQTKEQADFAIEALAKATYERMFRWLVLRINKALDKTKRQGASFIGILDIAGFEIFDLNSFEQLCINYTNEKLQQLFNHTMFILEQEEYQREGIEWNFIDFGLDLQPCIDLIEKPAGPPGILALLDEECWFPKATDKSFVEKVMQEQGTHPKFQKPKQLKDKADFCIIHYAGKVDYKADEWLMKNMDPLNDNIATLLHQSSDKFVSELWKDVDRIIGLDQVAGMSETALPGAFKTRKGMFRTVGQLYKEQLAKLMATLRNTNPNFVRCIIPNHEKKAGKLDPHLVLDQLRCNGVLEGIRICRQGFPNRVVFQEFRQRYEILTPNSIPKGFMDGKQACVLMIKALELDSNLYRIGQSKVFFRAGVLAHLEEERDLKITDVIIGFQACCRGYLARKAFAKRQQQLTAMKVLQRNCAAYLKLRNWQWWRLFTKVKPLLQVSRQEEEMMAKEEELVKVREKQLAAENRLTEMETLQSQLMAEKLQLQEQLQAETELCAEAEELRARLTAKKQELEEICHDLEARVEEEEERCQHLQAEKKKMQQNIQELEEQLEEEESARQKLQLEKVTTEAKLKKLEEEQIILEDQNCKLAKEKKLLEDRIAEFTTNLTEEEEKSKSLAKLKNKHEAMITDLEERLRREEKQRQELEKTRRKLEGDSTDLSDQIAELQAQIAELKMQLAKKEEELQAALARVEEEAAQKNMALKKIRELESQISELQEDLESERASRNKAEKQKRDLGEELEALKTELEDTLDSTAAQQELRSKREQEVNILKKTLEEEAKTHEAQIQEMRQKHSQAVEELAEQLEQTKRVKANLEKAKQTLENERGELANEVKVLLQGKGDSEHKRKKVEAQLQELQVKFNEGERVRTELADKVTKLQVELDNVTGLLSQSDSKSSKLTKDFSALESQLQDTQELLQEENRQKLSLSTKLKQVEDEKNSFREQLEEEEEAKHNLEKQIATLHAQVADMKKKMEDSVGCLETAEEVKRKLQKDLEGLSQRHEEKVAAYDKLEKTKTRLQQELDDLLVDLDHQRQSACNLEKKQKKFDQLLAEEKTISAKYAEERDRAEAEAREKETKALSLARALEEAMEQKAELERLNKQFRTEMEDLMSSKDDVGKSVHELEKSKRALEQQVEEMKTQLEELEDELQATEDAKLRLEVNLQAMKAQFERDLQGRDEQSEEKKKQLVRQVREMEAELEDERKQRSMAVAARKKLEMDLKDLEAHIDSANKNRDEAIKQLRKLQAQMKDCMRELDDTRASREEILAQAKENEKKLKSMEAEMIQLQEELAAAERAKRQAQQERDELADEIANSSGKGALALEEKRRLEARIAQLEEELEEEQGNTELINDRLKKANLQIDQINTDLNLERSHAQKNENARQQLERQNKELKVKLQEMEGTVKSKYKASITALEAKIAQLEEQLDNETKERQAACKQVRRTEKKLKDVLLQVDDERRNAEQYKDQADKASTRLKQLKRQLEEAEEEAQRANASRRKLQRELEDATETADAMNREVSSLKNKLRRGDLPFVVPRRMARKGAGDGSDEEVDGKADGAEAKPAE
T5 sequence (P60842 whole entry): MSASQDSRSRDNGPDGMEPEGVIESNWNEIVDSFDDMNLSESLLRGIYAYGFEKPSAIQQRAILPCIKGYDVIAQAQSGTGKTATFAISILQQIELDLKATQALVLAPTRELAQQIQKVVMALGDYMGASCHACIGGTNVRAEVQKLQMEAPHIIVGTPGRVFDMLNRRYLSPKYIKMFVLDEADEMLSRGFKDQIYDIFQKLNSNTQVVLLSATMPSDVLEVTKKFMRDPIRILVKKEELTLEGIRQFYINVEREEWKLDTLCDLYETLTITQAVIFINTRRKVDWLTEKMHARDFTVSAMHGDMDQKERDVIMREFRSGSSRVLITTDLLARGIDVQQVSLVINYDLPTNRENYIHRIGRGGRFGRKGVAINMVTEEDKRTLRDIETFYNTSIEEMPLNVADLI
T6 sequence (Q9H0U4 whole entry): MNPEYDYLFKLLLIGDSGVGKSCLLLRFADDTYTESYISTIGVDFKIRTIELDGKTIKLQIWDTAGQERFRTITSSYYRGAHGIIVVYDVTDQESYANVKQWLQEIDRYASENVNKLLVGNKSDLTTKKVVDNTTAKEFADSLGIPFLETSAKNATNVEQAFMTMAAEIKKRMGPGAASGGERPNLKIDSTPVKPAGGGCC
T3 sequence (P33993 whole entry): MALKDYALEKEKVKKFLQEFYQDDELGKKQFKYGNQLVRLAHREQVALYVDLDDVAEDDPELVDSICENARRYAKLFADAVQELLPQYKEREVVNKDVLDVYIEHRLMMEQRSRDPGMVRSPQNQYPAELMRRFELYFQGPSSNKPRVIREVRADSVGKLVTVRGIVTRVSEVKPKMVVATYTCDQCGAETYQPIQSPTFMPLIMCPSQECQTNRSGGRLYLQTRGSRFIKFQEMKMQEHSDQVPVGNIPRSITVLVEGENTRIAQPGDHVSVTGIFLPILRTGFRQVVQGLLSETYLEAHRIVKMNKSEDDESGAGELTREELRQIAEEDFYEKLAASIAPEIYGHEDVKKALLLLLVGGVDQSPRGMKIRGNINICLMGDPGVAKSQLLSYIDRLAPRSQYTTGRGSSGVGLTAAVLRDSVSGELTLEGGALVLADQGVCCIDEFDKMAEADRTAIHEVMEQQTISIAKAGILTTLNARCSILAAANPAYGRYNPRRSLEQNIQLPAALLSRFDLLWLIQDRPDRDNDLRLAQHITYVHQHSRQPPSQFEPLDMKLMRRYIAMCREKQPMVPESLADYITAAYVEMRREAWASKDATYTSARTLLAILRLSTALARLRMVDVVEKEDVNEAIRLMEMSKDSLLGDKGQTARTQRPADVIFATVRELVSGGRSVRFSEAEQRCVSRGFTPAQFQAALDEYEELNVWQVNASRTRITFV

| Structure (SMILES) | fold changes relative to vehicle control ([1]; HeLa, protein RPN1) | fold changes relative to vehicle control ([2]; HeLa, protein PCCB) | fold changes relative to vehicle control ([3]; protein MCM7, HeLa) | fold changes relative to vehicle control ([4]; HeLa, protein MYH9 (MYOSIN-9)) | fold changes relative to vehicle control ([5]; HeLa, protein EIF4A1) | fold changes relative to vehicle control ([6]; HeLa, protein RAB1B) | fold changes relative to vehicle control ([7]; HeLa, protein ATAD3A) | fold changes relative to vehicle control ([8]; HeLa, captured protein PUF60) | fold changes relative to vehicle control ([1]; protein RPN1, HeLa) | fold changes relative to vehicle control ([2]; captured protein PCCB, HeLa) | fold changes relative to vehicle control ([4]; captured protein MYH9, HeLa) | fold changes relative to vehicle control ([5]; protein EIF4A1, HeLa) | fold changes relative to vehicle control ([6]; protein RAB1B, HeLa) | fold changes relative to vehicle control ([8]; HeLa, protein PUF60) | other results |
| --- | --- | --- | --- | --- | --- | --- | --- | --- | --- | --- | --- | --- | --- | --- | --- |
| Nc1nc2c(c(=O)[nH]1)N(C=O)C(CNc1ccc(C(=O)N[C@@H](CCC(=O)O)C(=O)O)cc1)CN2 (some centres unmarked) [LEU, leucovorin] | 0.88 | 0.97 | 0.91 | 0.97 | 0.99 | 0.93 | 0.98 | 1.01 |  |  |  |  |  |  |  |
| Nc1nc2[nH]cc(CCc3ccc(C(=O)N[C@@H](CCC(=O)O)C(=O)O)cc3)c2c(=O)[nH]1 [PTX, pemetrexed] |  |  |  |  |  |  |  |  |  |  |  |  |  |  | fold changes relative to vehicle control [1]: 0.96; fold changes relative to vehicle control [2]: 0.22; fold changes relative to vehicle control [3]: 0.96; fold changes relative to vehicle control [4]: 0.99; fold changes relative to vehicle control [5]: 1.07; fold changes relative to vehicle control [6]: 0.93; fold changes relative to vehicle control [7]: 1.12; fold changes relative to vehicle control [8]: 0.9 |
| CCCCCCOc1ccc(Cc2cnc(N)nc2N)cc1 [compound 1] |  |  | 1.06 |  |  |  | 1.13 |  | 1.09 | 0.99 | 0.91 | 1.12 | 1.14 | 1.01 |  |
| CCCCCCOc1cccc(Cc2cnc(N)nc2N)c1 [compound 2] |  |  | 1.47 |  |  |  | 1.15 |  | 1.28 | 0.92 | 1.23 | 1.75 | 1.41 | 1.05 |  |
| Nc1nc2cccc(-c3ccccc3)c2n1Cc1ccc(Cl)c(Cl)c1 [compound 3] |  |  | 1.24 |  |  |  | 1.05 |  | 1.02 | 1 | 0.85 | 0.8 | 1.09 | 1.02 |  |
| NCCOCCOCC(=O)Nc1nc2ncc(CNc3ccc(C(=O)NC(CCC(=O)O)C(=O)O)cc3)nc2c(=O)[nH]1 (centres unmarked) [compound 6] | 0.96 | 0.91 | 1.16 | 1.44 | 1.27 | 0.98 | 1.17 | 0.92 |  |  |  |  |  |  |  |
| NCCCNc1ccc(C(=O)NC(CCC(=O)O)C(=O)O)cc1 (centres unmarked) [compound 7] | 0.94 | 1.17 | 1.14 | 0.9 | 0.89 | 0.91 | 1.13 | 0.95 |  |  |  |  |  |  |  |
